According to patent publication US20220023533A1, “SUBCUTANEOUS DELIVERY OF HIGH CONCENTRATION FORMULATIONS” (JAZZ PHRMACETICALS IRELAND LIMITED, priority 2018, published 2022):

Columns and labels:
[1] = cited from earlier work; for pKa2: α-ammonium ion; for pKa1: α-carboxyl group; for pKa3: side chain group
[2] = Viscosity of defibrotide formulations with various buffers and excipients; format: physicochemical
Description: (§1) It is important for pharmaceutical preparations for oral or parenteral administration to be of low-viscosity and/or isotonic. In order to identify buffers or excipients that may lower the viscosity and/or osmolality of defibrotide formulations, a wide-panel screening of various buffers and excipients (including GRAS excipients) was performed using a 200 mg/mL defibrotide formulation.

[3] = Osmolality of defibrotide formulations with various buffers and excipients; format: physicochemical
Description: as §1

| Effect of increasing the defibrotide concentration in the formulation on viscosity [2] | Effect of increasing the defibrotide concentration in the formulation on osmolality [3] | Compound | pI [1] | pKa2 [1] | pKa1 [1] | pKa3 [1] | pKa value ([1]; buffer or excipient) |
| --- | --- | --- | --- | --- | --- | --- | --- |
| – | – | CSCC[C@H](N)C(=O)O [Methionine] | 5.74 | 9.21 | 2.28 | – | – |
| – | – | CC[C@H](C)[C@H](N)C(=O)O [Isoleucine] | 6.02 | 9.60 | 2.36 | – | – |
| – | – | N[C@@H](Cc1c[nH]c2ccccc12)C(=O)O [Tryptophan] | – | 9.39 | 2.83 | – | – |
| – | – | NCCCC[C@H](N)C(=O)O [Lysine] | 9.74 | 8.95 | 2.18 | 10.53 | – |
| – | – | N[C@@H](Cc1ccccc1)C(=O)O [Phenylalanine] | 5.48 | 9.13 | 1.83 | – | – |
| increase | increase | Defibrotide | – | – | – | – | – |
| – | – | C[C@@H](O)[C@H](N)C(=O)O [Threonine] | 5.60 | 9.10 | 2.09 | – | – |
| – | – | C[C@H](N)C(=O)O [Alanine] | 6.00 | 9.69 | 2.34 | – | – |
| – | – | CC(C)[C@H](N)C(=O)O [Valine] | 5.96 | 9.62 | 2.32 | – | – |
| – | – | O=S(=O)(O)CCN1CCN(CCO)CC1 [HEPES buffer] | – | – | – | – | 7.564 |
| – | – | N[C@@H](Cc1ccc(O)cc1)C(=O)O [Tyrosine] | 5.66 | – | – | – | – |
| – | – | NC(=O)C[C@H](N)C(=O)O [Asparagine] | 5.41 | 8.80 | 2.02 | – | – |
| – | – | N=C(N)NCCC[C@H](N)C(=O)O [Arginine] | 10.76 | 9.04 | 2.17 | 12.48 | – |
| – | – | N[C@@H](CO)C(=O)O [Serine] | 5.68 | 9.15 | – | – | – |
| – | – | N[C@@H](CS)C(=O)O [Cysteine] | 5.07 | 8.18 | 1.96 | – | – |
| – | – | O=C(O)[C@@H]1CCCN1 [Proline] | 6.30 | 10.6 | 1.99 | – | – |
